# Values of other authors in patent US20140213990A1, “COMPOSITIONS AND METHODS FOR TREATING SURFACE WOUNDS” (priority 2013, published 2014).
# How the values were obtained:
# diabetic foot ulcers = settings: at 20 weeks of treatment
# [1] = Phase III clinical trials
substance,measurement,setting,value
Becaplermin,closure (healing) rate for diabetic foot ulcers,diabetic foot ulcers,44%
same,patients in whom cancer appeared,[1],80%
